Measurements from patent publication US9981972B2, “N-hydroxy bicyclic hydantoin carbamates as tools for identification of serine hydrolase targets” (ABIDE THERAPEUTICS, INC., priority 2014, dated 2018).
≈ marks a conversion by molar mass, not a printed value.

Experiments:
[1] = Determination of glutathione reactivity; type: physicochemical; settings: 10 μM compound, 50 μM glutathione, 37° C., 6 h
Procedure: Compound (10 μM) was incubated at 37° C. for 6 hours in the presence of 50 μM freshly prepared reduced glutathione. At 0 and 6 hours the samples were injected into the HPLC instrument. Peak area and retention time were compared between injections. Samples were evaluated for a glutathione dependent decrease in compound concentration. DMSO was added as a co-solvent as needed for solubility.

LYPLA1/2 = experiment: Gel filtration to assess mode of action, HeLa cell lysate; type: biochemical, human; settings: 200 nM or 1000 nM, FP-Rh labeling before and after gel filtration
Procedure: In this assay, a complex proteome was incubated with test compound and a fraction of the assay mixture was passaged over a Sephadex G-25M column before reaction with FP-Rh and SDS-PAGE analysis as described above.
Protocol Summary: HeLa cell lysate (1 mL of 1 mg/ml in DPBS) was treated with test compound (200 nM or 1000 nM, from 50× stock in DMSO) or DMSO only (no compound control). Test compounds were incubated for 30 minutes at 37° C. An aliquot (50 μL) was removed from each reaction, and the remaining sample was passaged over a Sephadex G-25M desalting column. An aliquot (50 μL, 1 mg/mL protein, eluted in DPBS) was removed, and pre- and post-filtration aliquots were reacted with FP-Rh (50× stock in DMSO; 2 μM final concentration). The reaction was incubated for 30 minutes at 25° C., quenched with 16 μL 4× SDS-PAGE loading buffer (reducing), separated by SDS-PAGE and visualized by in-gel fluorescent scanning. The percentage activity remaining was determined by measuring the integrated optical density of the LYPLA1/2 bands (quantified together) relative to a DMSO-only (no compound) control. The percent recovery was calculated by comparing percent inhibition before and after gel filtration for each test compound concentration.

Stability in PBS = type: physicochemical; settings: 10 μM compound, ambient temperature
Procedure: Samples were held in the HPLC autosampler at ambient temperature. At approximately 0, 1, 2, 4, 8, 24, and 48 hours the samples were injected on the HPLC. Peak area and retention time were compared between injections. Data was log transformed and represented as half-life. DMSO was added as a co-solvent as needed for solubility.

[2] = Solubility in media (DMEM+10% FBS); type: physicochemical; settings: plasma or biological fluid, kinetic from dmso stock, complete media (DMEM+10% FBS), 22° C., read-out: solubility in DMEM containing 10% serum
Procedure: (§1) Solubility in Media: The solubility of compounds were tested in triplicate in complete media (DMEM+10% FBS). Per well, 198 μL PBS is added to a Millipore Solvinert Hydrophilic PTFE 96 well filter plate: pore size: 0.45 μm (MSRLN0450). Test compounds were introduced from 10 mM DMSO stock solutions (2 μL). The final concentration of DMSO was 1 percent. Samples were allowed to incubate at 22° C. for 18 hours. In the morning the plate was centrifuged where the soluble portion passed through the filter and was collected in a capture plate. The samples were analyzed by HPLC (Agilent 1100 with diode-array detector). Peak area was compared to a standard of known concentration.

HeLa cells = experiment: Analysis of cytotoxicity (WST-1); type: cell-based, human
Procedure: Assay Overview: The purpose of this assay was to determine cytotoxicity of powder samples of test compounds. In this assay, HeLa cells in either serum-free medium or medium containing fetal calf serum (FCS) were incubated with test compounds, followed by determination of cell viability. The assay utilized the WST-1 substrate, which was converted into colorimetric formazan dye by the metabolic activity of viable cells. The amount of formed formazan directly correlated to the number of metabolically active cells in the culture.
Protocol Summary: This assay was started by seeding HeLa cells in DMEM medium supplemented with 10% FCS and 1× Pen-Strep-Glutamine in a 96-well plate. Cells were incubated at 37° C. in a humidified incubator until 80% confluent (24 hours). Medium was removed, and 100 μL of fresh medium (serum-free or supplemented with 10% FCS), pre-mixed with DMSO or test compound, was added to each well. Cells were incubated for 48 hours at 37° C. in a humidified incubator and cell viability was determined by the WST-1 assay (Roche) according to manufacturer instructions. CC50 values were determined from dose-response curves from three replicates at each inhibitor concentration (10, 100, 1000, 10000, 100000 nM), compared to six replicates of cells treated with DMSO only.

Solubility in PBS = type: physicochemical; settings: phosphate buffered saline, aqueous buffer, kinetic from dmso stock, PBS pH 7.4, 1% DMSO, 22° C.
Procedure: as §1, with “The” for “Solubility in Media: The”, “phosphate buffered saline (PBS), pH 7.4.” for “complete media (DMEM+10% FBS).”, “passes” for “passed”, “plate. Clotrimazole was included as a control to assure the assay was working properly.” for “plate.”, “HPLC.” for “HPLC (Agilent 1100 with diode-array detector).”

With O=C(ON1C(=O)C2CN(C(=O)N3CCOCC3)CCN2C1=O)N1CCC(CCc2ccc(Cl)cc2)CC1 (stereo not shown) [Compound 1, 7-(morpholine-4-carbonyl)-1,3-dioxohexahydroimidazo[1,5-a]pyrazin-2(3H)-yl 4-(4-chloro-phenethyl)piperidine-1-carboxylate] the reactivity with glutathione [1] was “did not show any reactivity”, the “binding mode (gel filtration)” value (LYPLA1/2) was “irreversible inhibitor” and the half-life at 10 µM (Stability in PBS) was 19 h. For the same molecule, the solubility at 18 h [2] was 46 µM (≈ 24.6 µg/mL), the cytotoxicity (HeLa cells; HeLa, 48 h, serum-free and serum-supplemented medium, up to 100 μM) was “did not show evidence of cytotoxicity” and the “dosing window (CC50 limit 10 μM versus in situ IC50)” value (HeLa cells; based on in situ IC50 values of 87/143 nM) was about 70 fold. The solubility at 18 h (Solubility in PBS) was 18 µM (≈ 9.61 µg/mL).
